Assay results reported in US11752125B2, “Anti-neuroinflammatory and protective compounds in Achillea fragrantissima” (THE STATE OF ISRAEL MINISTRY OF AGRICULTURE & RURAL …, priority 2013, dated 2023).

How the values were obtained:
[1] = system: ERK1/2; experiment: SNP-induced ERK1/2 phosphorylation in N2a cells (ELISA); format: cell-based; conditions: concomitant treatment 40 min, total protein not affected
Procedure: N2a cells were treated concomitantly with SNP and TTF for 40 min. Cells were extracted and the levels of phosphorylated or total ERK1/2 were determined by specific ELISA kits. The results are shown in FIG. 19 and are the mean±SEM of one experiment (n=2).

[2] = system: microglial cells; experiment: Cellular antioxidant activity (ABAP peroxyl radicals) in microglial cells; format: cell-based, rat; conditions: ABAP 0.6 mM, dexamethasone at nanomolar concentrations
Procedure: Intracellular ROS production was detected using the non-fluorescent cell permeating compound, 2′7′-dichlorofluorescein diacetate (DCF-DA). DCF-DA is hydrolyzed by intracellular esterases and then oxidized by ROS to a fluorescent compound 2′-7′-DCF. Peroxyl radicals are generated by thermolysis of 2,2′-Azobis(amidinopropane) (ABAP) at physiological temperature. ABAP decomposes at approximately 1.36×10^−6s^−1 at 37° C., producing at most 1×10^12 radicals/mL/s. Microglial cells (130,000 cells/well) were plated in DMEM containing 2% FBS, 8.4 mM HEPES, 2 mM glutamine, 100 U/mL penicillin and 100 μg/mL streptomycin, onto 24 wells plates. In order to measure the ability of achillolide A to enter the cells and prevent the formation of DCF by ABAP-generated peroxyl radicals, cells were incubated for 1 h with achillolide A. Then cells were preloaded with DCF-DA for 30 min, washed twice with PBS, and ABAP (0.6 mM final concentration) was then added. The fluorescence, which indicates ROS levels, was measured in a plate reader with excitation at 485 nm and emission at 520 nm.
Cells were incubated for 1 h with different concentrations of achillolide A. Then, the cells were pre-loaded with DCF-DA for 30 min and washed. ABAP (0.6 mM) was added to the culture and ROS levels were measured at the indicated time points. […]

[3] = system: iNOS; experiment: iNOS transcripts in LPS-stimulated microglial cells (real-time PCR); format: cell-based, rat; conditions: 20 μg/mL; LPS 4.5 ng/mL, 5 h
Procedure: RNA was extracted by the RNeasy Plus Mini Kit (Qiagen, Hilden, Germany) according to the manufacturer's instructions. Genomic DNA was removed from the RNA samples by using 50 units of RNase-free DNaseI at 37° C. for 1 h. RNA ([…]) was converted to cDNA using the Thermo Scientific Verso cDNA kit (Thermo Fisher Scientific Inc) following the manufacturer's protocol. The cDNA was used for quantitative real-time PCR amplification with TaqMan chemistry (Applied Biosystems) using Rat MMP9, TNFα, IL1β, iNOS, COX2 pre-designed TaqMan Gene Expression Assay from Applied Biosystems (Rn00579162_m1, Rn00562055_m1, Rn00580432_m1, Rn00561646_m1, Rn01483828_m1, respectively). […] All results from three technical replicates were normalized relative to α-Tubulin (Rn01532518.g1) and GAPDH (Rn01775763.g1), respectively, and expressed as relative expression ratios calculated (relative quantity, RQ) using the comparative method and based on the data that were created by the ABI PRISM 7700 Sequence Detection System (using version 1.6 software).
Procedure 23. Measurement of IL-1Beta, TNFalpha, iNOS, COX-2 and MMP-9 Transcripts in LPS-Activated Microglial Cells by Quantitative Real-Time PCR Analysis. • 1. […]
Microglial cells were treated with 20 μg/mL of achillolide A, followed by stimulation with LPS (4.5 ng/mL). […] The results are expressed as percentages relative to LPS-stimulated cells. […]

| SMILES | effect on SNP-induced phosphorylation of ERK1/2 [1] | inhibition of the ABAP-induced increase in ROS fluorescence [2] [%] | effect on LPS-induced iNOS transcript levels [3] |
| --- | --- | --- | --- |
| COc1cc(-c2oc3cc(OC)c(OC)c(O)c3c(=O)c2O)ccc1O [TTF, 3,5,4′-trihydroxy-6,7,3′-trimethoxyflavone] | significantly inhibited |  |  |
| C=C1CCC2=C(CO)C(=O)O[C@H]2/C=C(\C)[C@H](OC(C)=O)CC1=O [achillolide A] |  | 54 | significantly inhibited |
